Measurements reported in patent publication EP0403398A1, “New thioformamide derivatives” (RHONE-POULENC SANTE, priority 1989, dated 1990).

Test system: isolated rat aorta
Assay: Test A: activity against contractions induced by low K+ concentrations in the isolated rat aorta
Conditions: concentration reducing the 20mM K⁺-induced contraction by 90%; rat thoracic aorta strips denuded of endothelium, Krebs solution, cumulative concentrations; read-out: Activity Test A EC₉₀
Method: The test methods used were adapted from those described by Winslow et al [Eur.J.Pharmacol., 131, 219-228 (1986)] and Karaki [J.Pharmacol. Methods, 18, 1-21 (1987)] for differentiating vaso-relaxant activity. Test A : Activity against contractions induced by low K⁺ concentrations in the isolated rat aorta Thoracic aorta was removed from rats and transverse strips, denuded of endothelium, were suspended in a bath containing Krebs solution. The tension was recorded and a contraction induced by addition of 20mM K⁺ (potassium ion) to the bathing solution. The test compound was added to the bath as a solution in increasing cumulative concentration. The concentration in the bathing solution of the test compound which reduced the K⁺-induced contraction by 90% was determined and expressed in µM as the effective concentration (EC₉₀), given in Table I. Table I

| Structure (SMILES) | EC90 [nM] |
| --- | --- |
| CNC(=S)[C@]1(c2cccnc2)CCCC[C@H]1NOCc1ccccc1 (racemic) [AA, (±)-trans-2-benzyloxyamino-N-methyl-1-(3-pyridyl)cyclohexanecarbothioamide] | 3 |
| CNC(=S)[C@]1(c2cccnc2)CCCC[C@H]1N[C@H](C)c1ccccc1 [BD, (2R,1S)-2-[(R)-1-phenylethylamino]-1-(3-pyridyl)cyclohexane-N-methylcarbothioamide] | 0.03 |
| CNC(=S)[C@]1(c2cccnc2)CCCC[C@H]1NOC (racemic) [Compound AB, (±)-trans-2-methoxyamino-N-methyl-1-(3-pyridyl)cyclohexanecarbothioamide] | 300 |
| CNC(=S)[C@]1(c2cccnc2)CCCC[C@H]1N[C@H](C)c1cccc2ccccc12 [BE, (2R,1S)-2-[(R)-1-(1-naphthyl)ethylamino] 1-(3-pyridyl)cyclohexane-N-methylcarbothioamide] | 3 |
